≈ marks a conversion by molar mass, not a printed value.
Legend:
[1] = tested on: Acinetobacter baumannii (A. baumannii) BAA747; experiment: Antibacterial activity, MIC (Table 4); type: cell-based; settings: A. baumannii BAA747, read-out: MIC, BAA747
Method in brief: (§1)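 MIC in μg/mL by microbroth dilution, scored as the lowest level that suppresses visible growth.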

[2] = tested on: Klebsiella pneumoniae (K. pneumoniae) 35657; experiment: Antibacterial activity, MIC (Table 4); type: cell-based; settings: K. pneumoniae 35657, read-out: MIC, 35657
Method in brief: as §1

A. baumannii MXX2240 = experiment: Antibacterial activity, MIC, resistant strain (Table 4); type: cell-based; settings: Acinetobacter baumannii, MXX2240; resistant A. baumannii MMX2240, multi-drug resistant clinical isolate; read-out: MIC, MMX2240
Method in brief: as §1

K. pneumoniae MXX1232 = experiment: as above; type: cell-based; settings: Klebsiella pneumoniae, MXX1232; resistant K. pneumoniae MMX1232, multi-drug resistant clinical isolate; read-out: MIC, MMX1232
Method in brief: as §1

[3] = tested on: Pseudomonas aeruginosa (P. aeruginosa) 27853; experiment: Antibacterial activity, MIC (Table 5); type: cell-based; settings: P. aeruginosa 27853, read-out: MIC, 27853
Method in brief: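 Using a microbroth dilution format, the minimum inhibitory concentration was recorded as the lowest tested concentration that stopped visible bacterial growth, expressed in μg/mL.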

E. coli 25922 = experiment: Antibacterial activity, microbroth dilution MIC (Table 1); type: cell-based, Escherichia coli; settings: Escherichia coli; microbroth dilution; control Gram-negative E. coli 25922 strain; read-out: MIC, 25922
Method in brief: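 Lowest concentration stopping macroscopically visible growth under test conditions, by broth microdilution, defines the MIC (μg/mL).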

E. coli LZ3111 = experiment: Antibacterial activity, MIC, quinolone resistant strain (Table 2); type: cell-based; settings: Escherichia coli, LZ3111, read-out: MIC LZ3111
Method in brief: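 Growth inhibition assessed by serial drug dilution in broth; endpoint was absence of macroscopically visible growth, reported as MIC, μg/mL.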

[4] = tested on: Staphylococcus aureus (S. aureus) 29213; experiment: Antibacterial activity, microbroth dilution MIC (Table 1); type: cell-based; settings: microbroth dilution, Gram-positive S. aureus 29213, read-out: MIC, 29213
Method in brief: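 Values are MICs (μg/mL): the smallest drug amount at which macroscopically visible bacterial growth is absent under assay conditions, from a microdilution method in broth.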

[5] = tested on: Escherichia coli (E. coli) BAS849; experiment: as above; type: cell-based; settings: microbroth dilution, super sensitive Gram-negative E. coli BAS849, read-out: MIC, BAS849
Method in brief: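 Using broth microdilution, MIC endpoints (μg/mL) mark where visible growth no longer appears; the panel spans sensitive and control Gram-negative strains plus a Gram-positive strain.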

Structure (SMILES) | MIC [1] [µg/mL] | MIC [2] [µg/mL] | MIC (A. baumannii MXX2240) [µg/mL] | MIC (K. pneumoniae MXX1232) [µg/mL] | MIC [3] [µg/mL] | MIC (E. coli 25922) [µg/mL] | MIC (E. coli LZ3111) [µg/mL] | MIC [4] [µg/mL] | MIC [5] [µg/mL]
CCc1c(-c2cc3c(N4CCCC4)nc(C)cn3n2)[nH]c(=O)c(C(=O)O)c1O [Cpd 402, 5-ethyl-4-hydroxy-6-(6-methyl-4-(pyrrolidin-1-yl)pyrazolo[1,5-a]pyrazin-2-yl)-2-oxo-1,2-dihydropyridine-3-carboxylic acid] | 12.5 to 150 (≈ 32.6 to 391 µM) | 12.5 to 150 (≈ 32.6 to 391 µM) | 12.5 to 150 (≈ 32.6 to 391 µM) | 12.5 to 150 (≈ 32.6 to 391 µM) | 12.5 to 150 (≈ 32.6 to 391 µM) | 12.5 to 150 (≈ 32.6 to 391 µM) | 12.5 to 150 (≈ 32.6 to 391 µM) | 3.5 to 12.5 (≈ 9.13 to 32.6 µM) | 12.5 to 150 (≈ 32.6 to 391 µM)
CCc1c(-c2cccc3c2ccn3C)[nH]c(=O)c(C(=O)O)c1O [Cpd 403, 5-ethyl-4-hydroxy-6-(1-methyl-1H-indol-4-yl)-2-oxo-1,2-dihydropyridine-3-carboxylic acid] | 12.5 to 150 (≈ 40 to 480 µM) | 12.5 to 150 (≈ 40 to 480 µM) | 12.5 to 150 (≈ 40 to 480 µM) | 12.5 to 150 (≈ 40 to 480 µM) | 12.5 to 150 (≈ 40 to 480 µM) | 12.5 to 150 (≈ 40 to 480 µM) | 12.5 to 150 (≈ 40 to 480 µM) | 12.5 to 150 (≈ 40 to 480 µM) | 3.5 to 12.5 (≈ 11.2 to 40 µM)
Cc1c(-c2cccc3c2ccn3C)[nH]c(=O)c(C(=O)O)c1O [Cpd 404, 4-hydroxy-5-methyl-6-(1-methyl-1H-indol-4-yl)-2-oxo-1,2-dihydropyridine-3-carboxylic acid] | 12.5 to 150 (≈ 41.9 to 503 µM) | 12.5 to 150 (≈ 41.9 to 503 µM) | 12.5 to 150 (≈ 41.9 to 503 µM) | 12.5 to 150 (≈ 41.9 to 503 µM) | 12.5 to 150 (≈ 41.9 to 503 µM) | 12.5 to 150 (≈ 41.9 to 503 µM) | 12.5 to 150 (≈ 41.9 to 503 µM) | 12.5 to 150 (≈ 41.9 to 503 µM) | 3.5 to 12.5 (≈ 11.7 to 41.9 µM)
CCc1c(-c2cc3ccc(OC)cc3n2C)[nH]c(=O)c(C(=O)O)c1O [Cpd 405, 5-ethyl-4-hydroxy-6-(6-methoxy-1-methyl-1H-indol-2-yl)-2-oxo-1,2-dihydropyridine-3-carboxylic acid] | 12.5 to 150 (≈ 36.5 to 438 µM) | 12.5 to 150 (≈ 36.5 to 438 µM) | 12.5 to 150 (≈ 36.5 to 438 µM) | 12.5 to 150 (≈ 36.5 to 438 µM) | 12.5 to 150 (≈ 36.5 to 438 µM) | 12.5 to 150 (≈ 36.5 to 438 µM) | 12.5 to 150 (≈ 36.5 to 438 µM) | 3.5 to 12.5 (≈ 10.2 to 36.5 µM) | 3.5 to 12.5 (≈ 10.2 to 36.5 µM)
CCc1c(-c2cc3cc(F)ccc3n2C)[nH]c(=O)c(C(=O)O)c1O [Cpd 406, 5-ethyl-6-(5-fluoro-1-methyl-1H-indol-2-yl)-4-hydroxy-2-oxo-1,2-dihydropyridine-3-carboxylic acid] | 12.5 to 150 (≈ 37.8 to 454 µM) | 12.5 to 150 (≈ 37.8 to 454 µM) | 12.5 to 150 (≈ 37.8 to 454 µM) | 12.5 to 150 (≈ 37.8 to 454 µM) | 12.5 to 150 (≈ 37.8 to 454 µM) | 12.5 to 150 (≈ 37.8 to 454 µM) | 12.5 to 150 (≈ 37.8 to 454 µM) | 3.5 to 12.5 (≈ 10.6 to 37.8 µM) | 1 to 3.5 (≈ 3.03 to 10.6 µM)
CCc1ccc2c(c1)cc(-c1[nH]c(=O)c(C(=O)O)c(O)c1CC)n2C [Cpd 407, 5-ethyl-6-(5-ethyl-1-methyl-1H-indol-2-yl)-4-hydroxy-2-oxo-1,2-dihydropyridine-3-carboxylic acid] | 12.5 to 150 (≈ 36.7 to 441 µM) | 12.5 to 150 (≈ 36.7 to 441 µM) | 12.5 to 150 (≈ 36.7 to 441 µM) | 12.5 to 150 (≈ 36.7 to 441 µM) | 12.5 to 150 (≈ 36.7 to 441 µM) | 12.5 to 150 (≈ 36.7 to 441 µM) | 12.5 to 150 (≈ 36.7 to 441 µM) | 1 to 3.5 (≈ 2.94 to 10.3 µM) | 1 to 3.5 (≈ 2.94 to 10.3 µM)
CCc1ccc2cc(-c3[nH]c(=O)c(C(=O)O)c(O)c3CC)n(C)c2c1 [Cpd 408, 5-ethyl-6-(6-ethyl-1-methyl-1H-indol-2-yl)-4-hydroxy-2-oxo-1,2-dihydropyridine-3-carboxylic acid] | 12.5 to 150 (≈ 36.7 to 441 µM) | 12.5 to 150 (≈ 36.7 to 441 µM) | 12.5 to 150 (≈ 36.7 to 441 µM) | 12.5 to 150 (≈ 36.7 to 441 µM) | 12.5 to 150 (≈ 36.7 to 441 µM) | 12.5 to 150 (≈ 36.7 to 441 µM) | 12.5 to 150 (≈ 36.7 to 441 µM) | 1 to 3.5 (≈ 2.94 to 10.3 µM) | 1 to 3.5 (≈ 2.94 to 10.3 µM)
CCCc1ccc2c(c1)cc(-c1[nH]c(=O)c(C(=O)O)c(O)c1CC)n2C [Cpd 409, 5-ethyl-4-hydroxy-6-(1-methyl-5-propyl-1H-indol-2-yl)-2-oxo-1,2-dihydropyridine-3-carboxylic acid] | 12.5 to 150 (≈ 35.3 to 423 µM) | 12.5 to 150 (≈ 35.3 to 423 µM) | 12.5 to 150 (≈ 35.3 to 423 µM) | 12.5 to 150 (≈ 35.3 to 423 µM) | 12.5 to 150 (≈ 35.3 to 423 µM) | 12.5 to 150 (≈ 35.3 to 423 µM) | 12.5 to 150 (≈ 35.3 to 423 µM) | 3.5 to 12.5 (≈ 9.88 to 35.3 µM) | 1 to 3.5 (≈ 2.82 to 9.88 µM)
CCCc1ccc2cc(-c3[nH]c(=O)c(C(=O)O)c(O)c3CC)n(C)c2c1 [Cpd 410, 5-ethyl-4-hydroxy-6-(1-methyl-6-propyl-1H-indol-2-yl)-2-oxo-1,2-dihydropyridine-3-carboxylic acid] | 12.5 to 150 (≈ 35.3 to 423 µM) | 12.5 to 150 (≈ 35.3 to 423 µM) | 12.5 to 150 (≈ 35.3 to 423 µM) | 12.5 to 150 (≈ 35.3 to 423 µM) | 12.5 to 150 (≈ 35.3 to 423 µM) | 12.5 to 150 (≈ 35.3 to 423 µM) | 12.5 to 150 (≈ 35.3 to 423 µM) | 3.5 to 12.5 (≈ 9.88 to 35.3 µM) | 1 to 3.5 (≈ 2.82 to 9.88 µM)
CCc1c(-c2cc3cc(F)c(C)cc3n2C)[nH]c(=O)c(C(=O)O)c1O [Cpd 411, 5-ethyl-6-(5-fluoro-1,6-dimethyl-1H-indol-2-yl)-4-hydroxy-2-oxo-1,2-dihydropyridine-3-carboxylic acid] | 12.5 to 150 (≈ 36.3 to 436 µM) | 12.5 to 150 (≈ 36.3 to 436 µM) | 12.5 to 150 (≈ 36.3 to 436 µM) | 12.5 to 150 (≈ 36.3 to 436 µM) | 12.5 to 150 (≈ 36.3 to 436 µM) | 12.5 to 150 (≈ 36.3 to 436 µM) | 12.5 to 150 (≈ 36.3 to 436 µM) | 3.5 to 12.5 (≈ 10.2 to 36.3 µM) | 1 to 3.5 (≈ 2.9 to 10.2 µM)
CCc1c(-c2ccc3c(c2)cc2n3CC(N)C2)[nH]c(=O)c(C(=O)O)c1O.Cl (stereo not drawn) [Cpd 413, 6-(2-amino-2,3-dihydro-1H-pyrrolo[1,2-a]indol-7-yl)-5-ethyl-4-hydroxy-2-oxo-1,2-dihydropyridine-3-carboxylic acid hydrochloride] | 3.5 to 12.5 | < 1 | 12.5 to 150 | 12.5 to 150 | 12.5 to 150 | < 1 | 3.5 to 12.5 | 12.5 to 150 | < 1
CCc1c(-c2ccc3c(c2)cc2n3CC(NC)CC2)[nH]c(=O)c(C(=O)O)c1O.Cl (stereo not drawn) [Cpd 414, 5-ethyl-4-hydroxy-6-(7-(methylamino)-6,7,8,9-tetrahydropyrido[1,2-a]indol-2-yl)-2-oxo-1,2-dihydropyridine-3-carboxylic acid hydrochloride] | 3.5 to 12.5 | < 1 | 12.5 to 150 | 12.5 to 150 | 12.5 to 150 | 1 to 3.5 | 3.5 to 12.5 | 12.5 to 150 | < 1
CCc1c(-c2ccc3c(c2)cc2n3CC(NC)C2)[nH]c(=O)c(C(=O)O)c1O.Cl (stereo not drawn) [Cpd 416, 5-ethyl-4-hydroxy-6-(2-(methylamino)-2,3-dihydro-1H-pyrrolo[1,2-a]indol-7-yl)-2-oxo-1,2-dihydropyridine-3-carboxylic acid hydrochloride] | 12.5 to 150 | 12.5 to 150 | 12.5 to 150 | 12.5 to 150 | 12.5 to 150 | 12.5 to 150 | 12.5 to 150 | 12.5 to 150 | 3.5 to 12.5
Cc1c(-c2ccc3c(c2)cc2n3CC(N(C)C)C2)[nH]c(=O)c(C(=O)O)c1O.Cl (stereo not drawn) [Cpd 417, 6-(2-(dimethylamino)-2,3-dihydro-1H-pyrrolo[1,2-a]indol-7-yl)-4-hydroxy-5-methyl-2-oxo-1,2-dihydropyridine-3-carboxylic acid hydrochloride] | 3.5 to 12.5 | 12.5 to 150 | < 1 | 12.5 to 150 | 12.5 to 150 | 12.5 to 150 | < 1 | 12.5 to 150 | 1 to 3.5
